Earlier results, collected in paper PMC4460250, “Systems Pharmacology Dissecting Holistic Medicine for Treatment of Complex Diseases: An Example Using Cardiocerebrovascular Diseases Treated by TCM” (Evidence-based Complementary and Alternative Medicine : eCAM, 2015).

settings: human; PreHIA data set, value given as fraction; cited from earlier work

Compound | HIA(Human Intestinal Absorption)
Nc1ccc(S(=O)(=O)c2ccc(N)cc2)cc1 [Dapsone] | 0.9

same assay, conditions: in vivo; cited from earlier work

Compound | HIA(Human Intestinal Absorption)
Cc1ccc(C(=O)c2ccc(CC(=O)O)n2C)cc1 [Tolmetin] | 0.99
OC[C@H]1O[C@@H](O[C@@H]2[C@@H](CO)OC(O)(CO)[C@H]2O)[C@H](O)[C@@H](O)[C@H]1O (mixture of isomers) [Lactulose] | 0.01
CC#Cc1cn([C@@H]2O[C@H](CO)[C@@H](O)[C@@H]2O)c(=O)[nH]c1=O [Netivudine] | 0.28
CCOC(=O)C(C)(C)Oc1ccc(Cl)cc1 [Clofibrate] | 0.97
CC(=O)Nc1ccc(O)cc1 [Acetaminophen] | 0.85
CC(C)(C)NCC(O)COc1cccc2c1CC(O)C(O)C2 (stereo not shown) [Nadolol] | 0.57
CN(C)CCCN1c2ccccc2CCc2ccccc21 [Imipramine] | 1
OCCOCCN1CCN(C2=Nc3ccccc3Sc3ccccc32)CC1 [Quetiapine] | 0.73
Oc1ncnc2[nH]ncc12 [Allopurinol] | 0.8
CCc1nn(CCCN2CCN(c3cccc(Cl)c3)CC2)c(=O)n1CCOc1ccccc1 [Nefazodone] | 1
COCC1=C(C(=O)OC(C)OC(=O)OC(C)C)N2C(=O)[C@@H](NC(=O)/C(=N\OC)c3csc(N)n3)[C@H]2SC1 (stereo partly shown) [Cefpodoxime_proxetil] | 0.5
O=C(O)c1cc(/N=N/c2ccc(O)c(C(=O)O)c2)ccc1O [Olsalazine] | 0.24
CC(=O)N(CC(O)CO)c1c(I)c(C(=O)NCC(O)CO)c(I)c(C(=O)NCC(O)CO)c1I (stereo not shown) [Iohexol] | 0.05
CNC(=C[N+](=O)[O-])NCCSCc1csc(CN(C)C)n1 [Nizatidine] | 0.9
C=CC(N)CCC(=O)O (stereo not shown) [Vigabatrin] | 0.58
O=P(O)(O)C(Sc1ccc(Cl)cc1)P(=O)(O)O [Tiludronic_acid] | 0.06
CC(=O)O[C@]1(C(C)=O)CC[C@H]2[C@@H]3C=C(Cl)C4=CC(=O)[C@@H]5C[C@@H]5[C@]4(C)[C@H]3CC[C@@]21C [Cyproterone_acetate] | 0.98
CC(O)(CS(=O)(=O)c1ccc(F)cc1)C(=O)Nc1ccc(C#N)c(C(F)(F)F)c1 (stereo not shown) [Bicalutamide] | 0.9
Cc1ccsc1C(=CCCN1CCC[C@@H](C(=O)O)C1)c1sccc1C [Tiagabine] | 0.9
COC(=O)Nc1nc2ccc(C(=O)c3ccccc3)cc2[nH]1 [Mebendazole] | 1
[H]/N=C(/N)N[C@H]1[C@H](O)[C@@H](O)[C@H](O[C@@H]2O[C@@H](C)[C@](O)(C=O)[C@H]2O[C@@H]2O[C@@H](CO)[C@H](O)[C@@H](O)[C@@H]2NC)[C@@H](N/C(N)=N\[H])[C@@H]1O [Streptomycin] | 0.01
Nc1nnc(-c2cccc(Cl)c2Cl)c(N)n1 [Lamotrigine] | 0.98
Cc1cn([C@H]2C=C[C@@H](CO)O2)c(=O)[nH]c1=O [Stavudine] | 1
COc1ccc(CCN2CCC(Nc3nc4ccccc4n3Cc3ccc(F)cc3)CC2)cc1 [Astemizole] | 1
Cc1cc(NC(=O)C2=C(O)c3ccccc3S(=O)(=O)N2C)no1 [Isoxicam] | 1
O=C1NC(=O)C(c2ccccc2)(c2ccccc2)N1 [Phenytoin] | 0.9

Compound | HIA(Human Intestinal Absorption)
CN1CCN2c3ccccc3Cc3ccccc3C2C1 (stereo not shown) [Mianserin] | 0.7
O=C1NS(=O)(=O)c2ccccc21 [Saccharin] | 0.88
CN1CCC(=C2c3ccccc3CCc3sccc32)CC1 [Pizotyline] | 0.8
[H]/N=C(\N/C(=N/[H])NCCCCCCNC(=N)NC(=N)Nc1ccc(Cl)cc1)Nc1ccc(Cl)cc1 [Chlorhexidine] | 0.05
CCC#CC[C@H](C)[C@H](O)C#C[C@@H]1[C@H]2C/C(=C/COCC(=O)O)C[C@H]2C[C@H]1O [Cicaprost] | 1
CC1(C)NC(=O)N(c2ccc([N+](=O)[O-])c(C(F)(F)F)c2)C1=O [Nilutamide] | 1
COc1cc(C)c(/C=C/C(C)=C/C=C/C(C)=C/C(=O)O)c(C)c1C [Acitretin] | 0.95
Cc1nc(=O)c(C#N)c(NCc2cccnc2)[nH]1 [Pelrinone] | 0.98
CCC[C@@H]1C[C@@H](C(=O)N[C@@H]([C@H]2O[C@H](SC)[C@H](O)[C@@H](O)[C@H]2O)[C@@H](C)O)N(C)C1 [Lincomycin] | 0.28
CN1CCN(CCCCN2C(=O)CN(/N=C/c3ccc(-c4ccc(Cl)cc4)o3)C2=O)CC1 [Azimilide] | 1
CC1=NS(=O)(=O)c2cc(Cl)ccc2N1 [Diazoxide] | 0.9
COc1ccc(Cl)cc1C(=O)NCCc1ccc(S(=O)(=O)NC(=O)NC2CCCCC2)cc1 [Glyburide] | 1
N[C@@H](C(=O)N[C@@H]1C(=O)N2C(C(=O)O)=C(CSc3c[nH]nn3)CS[C@H]12)c1ccc(O)cc1 [Cefatrizine] | 0.76
COCCCOc1ccnc(C[S+]([O-])c2nc3ccccc3[nH]2)c1C (stereo not shown) [Rabeprazole] | 0.9
O=C1CN2Cc3c(ccc(Cl)c3Cl)N=C2N1 [Anagrelide] | 0.7
NS(=O)(=O)c1cc2c(cc1C(F)(F)F)NC(Cc1ccccc1)NS2(=O)=O (stereo not shown) [Bendroflumethiazide] | 1
CC[C@H]1OC(=O)[C@H](C)C(=O)[C@H](C)[C@@H](O[C@@H]2O[C@H](C)C[C@H](N(C)C)[C@H]2O)[C@](C)(OC)C[C@@H](C)C(=O)[C@H](C)[C@H]2N(CCCCn3cnc(-c4cccnc4)c3)C(=O)O[C@]12C [Telithromycin] | 0.9
Cc1onc(-c2c(F)cccc2Cl)c1C(=O)N[C@@H]1C(=O)N2[C@@H]1SC(C)(C)[C@@H]2C(=O)O [Floxacillin] | 0.8
CCCC(CCC)C(=O)O [Valproic_acid] | 0.98
CC(=O)Oc1ccccc1C(=O)O [Aspirin] | 0.82
CN(C)CCC=C1c2ccccc2CCc2ccccc21 [Amitriptyline] | 0.95
O=C(O)c1cc(-c2ccc(F)cc2F)ccc1O [Diflunisal] | 0.9
COc1cc(N)c(Cl)cc1C(=O)NC1CCN(CCCOc2ccc(F)cc2)CC1OC (stereo not shown) [Cisapride] | 1
CCCc1nc2c(C)cc(-c3nc4ccccc4n3C)cc2n1Cc1ccc(-c2ccccc2C(=O)O)cc1 [Telmisartan] | 0.9
CC(C(=O)O)c1ccc(N2Cc3ccccc3C2=O)cc1 (stereo not shown) [Indoprofen] | 1
CN(C/C=C/C#CC(C)(C)C)Cc1cccc2ccccc12 [Terbinafine] | 0.8

Compound | HIA(Human Intestinal Absorption)
CCOC(=O)c1ncn2c1CN(C)C(=O)c1cc(F)ccc1-2 [Flumazenil] | 0.95
Cn1cc[nH]c1=S [Methimazole] | 0.95
CC(=O)Nc1ccc(O)cc1 [Paracetamol] | 0.8
CN1CCC(=C2c3ccccc3CCc3cccnc32)CC1 [Azatadine] | 0.9
CCCCCC(=O)O[C@]1(C(C)=O)CC[C@H]2[C@@H]3CCC4=CC(=O)CC[C@]4(C)[C@H]3CC[C@@]21C [Hydroxyprogesterone_caproate] | 0.9
CCOC(=O)n1ccn(C)c1=S [Carbimazole] | 0.95
Cc1cc(NS(=O)(=O)c2ccc(N)cc2)nc(C)n1 [Sulfisomidine] | 0.9
O=C(O)c1cccnc1 [Nicotinic_acid] | 0.88
CN(C)CCc1c[nH]c2ccc(Cn3cncn3)cc12 [Rizatriptan] | 0.9
CCOC(=O)[C@H](CCc1ccccc1)N[C@H]1CCCN2CCC[C@@H](C(=O)O)N2C1=O [Cilazapril] | 0.59
CC[C@H](C)C(=O)O[C@H]1C[C@H](O)C=C2C=C[C@H](C)[C@H](CC[C@@H](O)C[C@@H](O)CC(=O)O)[C@H]21 [Pravastatin] | 0.34
CC/C(=C(/CC)c1ccc(O)cc1)c1ccc(O)cc1 [Diethylstilbestrol] | 0.9
Cc1c(OCC(F)(F)F)ccnc1C[S+]([O-])c1nc2ccccc2[nH]1 (stereo not shown) [Lansoprazole] | 0.85
CCOC(=O)Nc1ccc2c(c1)N(C(=O)CCN1CCOCC1)c1ccccc1S2 [Moricizine] | 0.88
CC(O)(P(=O)(O)O)P(=O)(O)O [Etidronate] | 0.05
CC1=C(/C=C/C(C)=C/C=C/C(C)=C\C(=O)O)C(C)(C)CCC1 [Isotretinoin] | 0.9
CCCN(CCC)S(=O)(=O)c1ccc(C(=O)O)cc1 [Probenecid] | 1
CNS(=O)(=O)Cc1ccc2[nH]cc(CCN(C)C)c2c1 [Sumatriptan] | 0.57
c1ccc2[nH]c(-c3cscn3)nc2c1 [Thiabendazole] | 0.9
CC(=O)Nc1ccccc1 [Acetanilide] | 1
CN1C(C(=O)Nc2ccccn2)=C(O)c2sccc2S1(=O)=O [Tenoxicam] | 1
CO[C@H]1C[C@H](O[C@H]2CC[C@]3(C=O)[C@H]4CC[C@]5(C)[C@@H](C6=CC(=O)OC6)CC[C@]5(O)[C@@H]4CC[C@]3(O)C2)O[C@H](C)[C@H]1O [Cymarin] | 0.47
OCCN1CCN(CCC=C2c3ccccc3Sc3ccc(Cl)cc32)CC1 [Clopenthixol] | 0.95
CCOC(=O)[C@H](CCc1ccccc1)N[C@@H](C)C(=O)N1CCC[C@H]1C(=O)O [Enalapril] | 0.66
O=C1Cc2cc(CCN3CCN(c4nsc5ccccc45)CC3)c(Cl)cc2N1 [Ziprasidone] | 0.6
O=c1[nH]c(=O)n([C@@H]2O[C@H](CO)[C@@H](O)[C@@H]2O)cc1/C=C/Br [Sorivudine] | 0.82
